Assay results reported in patent publication US20080262025A1, “Processes for the Preparation of Zolpidem and its Hemitartrate” (priority 2004, published 2008).

Tests used:
[1] = Moisture content by Karl Fischer titration; assay type: physicochemical
Method: • Differential scanning calorimetry plots were recorded using the following instrument and parameters: • DSC821 e, Mettler Toledo • Sample weight: 8-10 mg • Temperature range: 25-300° C. • Heating rate: 10° C./min • Nitrogen 20.0 mL/min • Number of holes in the crucible: 1 (d) TGA analysis was carried out using Perkin Elmer Instrument (e) Moisture content determination was carried out by Karl-Fischer titration technique using Mettler instrument.

[2] = Hygroscopicity: moisture absorption on exposure to atmospheric / normal storage conditions, stability studies; assay type: physicochemical; conditions: for hygroscopicity: normal storage conditions / stability studies

## Cc1ccc(-c2nc3ccc(C)cn3c2CC(=O)N(C)C)cc1 [Form A, zolpidem hemitartrate]
[1]; TGA and Karl Fischer analysis, after absorption of water
  moisture content after absorption of water: up to 5%
[1]; TGA and Karl Fischer analysis, initially
  moisture content, initial: about 1.0 % w/w
[2]; after exposure to atmospheric conditions
  moisture absorbed after exposure to atmospheric conditions: up to 5 % w/w
[2]
  hygroscopicity: very hygroscopic

## Cc1ccc(-c2nc3ccc(C)cn3c2CC(=O)N(C)C)cc1 [Form I, zolpidem hemitartrate]
[1]; product of Example 3, dried at 45 to 50° C. under reduced pressure
  Moisture Content: 2.33 % w/w
[2]
  hygroscopicity: non-hygroscopic
